Tests used:
brain ChE = brain ChE activity in parathion-treated rats; assay type: in vivo, rat
[1] = assay type: in vivo, rat; conditions: after parathion 8 mg/kg oral; 60 min
female Long-Evans rats = conditions: out of 5 rats dosed with parathion 8 mg/kg oral; 60 min
rat = conditions: ref Gaines, 1960; cited from earlier work
[2] = substrate: CC1=CC(=O)c2ccccc2C1=O; experiment: CPR-mediated redox cycling, H2O2 formation; assay type: biochemical, human; conditions: other: menadione as redox cycling substrate of CPR; Amplex Red; pH 7.8; 37.0 °C
[3] = substrate: CC1=CC(=O)c2ccccc2C1=O; experiment: CPR-mediated redox cycling, hydroxyl radical formation; assay type: biochemical, human; conditions: other: menadione; Fe/EDTA, terephthalate; pH 7.8; 37.0 °C
[4] = parathion 8 mg/kg oral gavage alone, 60 min

CC1(S(=O)(=O)[O-])CC(=O)c2ccccc2C1=O.[Na+] (centres unmarked) [menadione bisulfite]
parathion-induced inhibition of brain cholinesterase activity (brain ChE; menadione bisulfite 40 mg/kg, ip): reduced

CCOP(=O)(OCC)Oc1ccc([N+](=O)[O-])cc1 [paraoxon, diethyl 4-nitrophenyl phosphate]
paraoxon levels in serum, liver and brain [1]: could not be detected

CCOP(=S)(OCC)Oc1ccc([N+](=O)[O-])cc1 [parathion, diethyl 4-nitrophenyl phosphorothionate]
forebrain ChE activity inhibited (brain ChE; [4]): 95% | hindbrain ChE activity inhibited (brain ChE; [4]): 87% | rats that died before the end of the observation period (female Long-Evans rats): 1 | rat oral LD50 (rat): 2 to 13 mg/kg

B1: recombinant human CPR (Homo sapiens) (protein)
chain: MGDSHVDTSSTVSEAVAEEVSLFSMTDMILFSLIVGLLTYWFLFRKKKEEVPEFTKIQTLTSSVRESSFVEKMKKTGRNIIVFYGSQTGTAEEFANRLSKDAHRYGMRGMSADPEEYDLADLSSLPEIDNALVVFCMATYGEGDPTDNAQDFYDWLQETDVDLSGVKFAVFGLGNKTYEHFNAMGKYVDKRLEQLGAQRIFELGLGDDDGNLEEDFITWREQFWPAVCEHFGVEATGEESSIRQYELVVHTDIDAAKVYMGEMGRLKSYENQKPPFDAKNPFLAAVTTNRKLNQGTERHLMHLELDISDSKIRYESGDHVAVYPANDSALVNQLGKILGADLDVVMSLNNLDEESNKKHPFPCPTSYRTALTYYLDITNPPRTNVLYELAQYASEPSEQELLRKMASSSGEGKELYLSWVVEARRHILAILQDCPSLRPPIDHLCELLPRLQARYYSIASSSKVHPNSVHICAVVVEYETKAGRINKGVATNWLRAKEPAGENGGRALVPMFVRKSQFRLPFKATTPVIMVGPGTGVAPFIGFIQERAWLRQQGKEVGETLLYYGCRRSDEDYLYREELAQFHRDGALTQLNVAFSREQSHKVYVQHLLKQDREHLWKLIEGGAHIYVCGDARNMARDVQNTFYDIVAELGAMEHAQAVDYIKKLMTKGRYSLDVWS
Km [2]: 4.1 µM | Km [3]: 1.7 µM
